The results in this text go back to ChEMBL document CHEMBL4417629, “Inhibitors of RAD52 Recombination Protein and Methods Using Same” (2018).

The subject of one series is CAPAN-1. The series is described as follows: Growth inhibition of BRCA2-deficient human Capan1 cells at 2.5 to 10 uM following media refreshment every 3 days and measured on day 10 by CellTiter-Glo assay. The format is functional, cell-based. A general note: In ATP-based viability assays light output follows the ATP content of the culture.
The species named for series [1] is Homo sapiens. Description: Growth inhibition of BRCA1-deficient human UWB1.289 cells at 2.5 to 10 uM following media refreshment every 3 days and measured on day 10 by CellTiter-Glo assay. The format is functional.
In series [2] the target is T1, DNA repair protein RAD51 homolog 1 (Homo sapiens) (UniProt Q06609).
T1 sequence (whole entry): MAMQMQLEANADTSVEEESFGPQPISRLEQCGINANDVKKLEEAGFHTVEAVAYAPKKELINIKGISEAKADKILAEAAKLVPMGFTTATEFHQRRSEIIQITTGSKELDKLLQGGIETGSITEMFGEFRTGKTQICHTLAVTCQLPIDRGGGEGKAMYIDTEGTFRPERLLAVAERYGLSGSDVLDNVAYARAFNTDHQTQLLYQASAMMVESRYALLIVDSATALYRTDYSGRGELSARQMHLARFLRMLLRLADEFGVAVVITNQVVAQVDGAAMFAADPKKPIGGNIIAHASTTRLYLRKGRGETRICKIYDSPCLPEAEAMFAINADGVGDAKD
Description: Inhibition of RAD51 (unknown origin) assessed as inhibition of DNA pairing by measuring D-loop formation between [32P]-ssDNA and homologous supercoiled pUC19 DNA at 30 uM incubated for 15 mins by gel electrophoresis method relative to control.

Series [3] concerns the target T2, DNA repair protein RAD52 homolog (Homo sapiens) (UniProt P43351).
T2 sequence (whole entry): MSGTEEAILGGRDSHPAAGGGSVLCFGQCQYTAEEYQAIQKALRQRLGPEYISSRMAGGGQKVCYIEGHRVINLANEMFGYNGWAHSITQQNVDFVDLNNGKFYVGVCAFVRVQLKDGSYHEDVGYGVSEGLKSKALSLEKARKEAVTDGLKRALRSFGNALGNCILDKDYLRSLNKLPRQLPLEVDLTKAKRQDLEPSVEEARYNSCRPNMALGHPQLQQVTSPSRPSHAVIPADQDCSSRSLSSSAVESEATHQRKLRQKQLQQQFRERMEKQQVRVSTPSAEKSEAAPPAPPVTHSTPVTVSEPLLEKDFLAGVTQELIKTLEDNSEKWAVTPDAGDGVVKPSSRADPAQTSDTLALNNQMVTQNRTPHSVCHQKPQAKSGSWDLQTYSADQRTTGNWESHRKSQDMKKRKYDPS
Description: Inhibition of RAD52 (unknown origin) assessed as inhibition of DNA pairing using [32P]-ssDNA by measuring D-loop formation incubated for 15 mins by gel electrophoresis method.

The test system of a further series is Salmon testes DNA. The series is described as follows: Binding affinity to salmon sperm DNA incubated for 20 mins by acridine orange displacement based fluorescence polarization assay. The format is nucleic-acid assay. To be noted: Salmonidae. (Fluorescence polarisation rises when a labelled molecule tumbles more slowly, as on binding a larger partner.)
The species entered for series [4] is Homo sapiens. Description: Growth inhibition of BRCA1-proficient human CML cells at 2.5 to 10 uM treated with compound on days 0 and 2 and measured on day 4 by trypan blue staining based assay. The format is functional.
In series [5] the target is T2, DNA repair protein RAD52 homolog (Homo sapiens). Description: Inhibition of RAD52 (unknown origin) expressed in BCR-ABL1-positive and BRCA1-deficient mouse 32Dcl3 cells expressing GFP-RAD52 assessed as reduction in cisplatin-induced RAD52 foci formation at 2.5 uM by AlexaFluor-594 staining based inverted fluorescence microscopy relative to control. In kind it is cell-based.

Series [6] shares this target. Description: Inhibition of RAD52 (unknown origin) expressed in BCR-ABL1-positive and BRCA1-deficient mouse 32Dcl3 cells expressing GFP-RAD52 assessed as cisplatin-induced RAD52 foci formation by measuring fraction of cell without foci at 2.5 uM by AlexaFluor-594 staining based inverted fluorescence microscopy (reference value: 48.4 +/- 6.2%). More on the design: scale not given: the % may be the effect or the level left.

The target in series [7] is T3, DNA repair protein RAD51 homolog 1 (Mus musculus, UniProt Q08297).
T3 sequence (Q08297 whole entry): T1 sequence (whole entry) with N10S, F46Y, A76T, A194G
The series is described as follows: Induction of RAD51 foci formation in BCR-ABL1-positive and BRCA1-proficient mouse 32Dcl3 cells by AlexaFluor-594 staining based inverted fluorescence microscopy.

For series [8], the target named is T4, DNA repair protein RAD52 homolog (Homo sapiens, UniProt P43351).
T4 sequence (P43351 whole entry): T2 sequence (whole entry)
Description: Effect on RAD52 (unknown origin) expressed in BCR-ABL1-positive and BRCA1-deficient mouse 32Dcl3 cells expressing GFP-RAD52 assessed as induction of RAD52 foci formation by AlexaFluor-594 staining based inverted fluorescence microscopy. In kind it is cell-based.

The target in series [9] is T2, DNA repair protein RAD52 homolog (Homo sapiens). The series is described as follows: Inhibition of RAD52 in human U2OS cells co-expressing SA-GFP assessed as reduction in single strand DNA annealing at 30 uM incubated for 48 hrs by GFP+ positive cells detection based flow cytometry relative to control. The format is cell-based. In general terms: A flow cytometer gives signals particle by particle.

For series [10], the system named is U2OS. Description: Effect on GFP+ positive cells in human U2OS cells co-expressing pMX-GFP up to 30 uM incubated for 48 hrs by flow cytometry relative to control. In kind it is ADME, cell-based.
The test system of series [11] is U2OS. The series is described as follows: Effect on homology dependent recombination in human U2OS cells co-expressing DR-GFP at 10 to 30 uM flow cytometry. In kind it is functional, cell-based.
In series [12] the target is T2, DNA repair protein RAD52 homolog (Homo sapiens). Description: Inhibition of RAD52 in human U2OS cells co-expressing SSA-GFP assessed as inhibition of repair of I-Scel-induced double stranded breaks by measuring green fluorescence at 5 uM by flow cytometry (reference value: 7.1%). Set-up: scale not given: the % may be the effect or the level left. In kind it is cell-based.

Series [13] shares this target. Description: Inhibition of RAD52 in human U2OS cells co-expressing SSA-GFP assessed as inhibition of repair of I-Scel-induced double stranded breaks by measuring green fluorescence at 20 uM by flow cytometry (reference value: 7.1%). The format is cell-based. More on the design: scale not given: the % may be the effect or the level left.
Series [14] shares this target. The series is described as follows: Inhibition of RAD52 in human U2OS cells co-expressing SSA-GFP assessed as inhibition of repair of I-Scel-induced double stranded breaks by measuring green fluorescence at 30 uM by flow cytometry (reference value: 7.1%). The format is cell-based. Set-up: scale not given: the % may be the effect or the level left.
The subject of series [15] is U2OS. The series is described as follows: Effect on homology dependent recombination in human U2OS cells co-expressing DR-GFP assessed as measuring green fluorescence at 5 uM flow cytometry (reference value: 7.13%). The format is functional.
The subject of series [16] is U2OS. Description: Effect on homology dependent recombination in human U2OS cells co-expressing DR-GFP assessed as measuring green fluorescence at 10 uM flow cytometry (reference value: 7.13%). In kind it is functional.
For series [17], the system named is U2OS. Description: Effect on homology dependent recombination in human U2OS cells co-expressing DR-GFP assessed as measuring green fluorescence at 15 uM flow cytometry (reference value: 7.13%). The format is functional.

Positions count from the first letter of the chain named. Activity calls are given as the source filed them. The calls are words filed in the database; no cut-off is given here.

For orientation: inhibition means the relative decrease from the control value, in per cent. `CCN(CC)CCN=C(S)Nc1ccc2nc(N3CCN(C)CC3)cc(C)c2c1`: the “growth inhibition (GI)” value in the series with CAPAN-1 and in the series filed under Homo sapiens [1] was “Active” throughout. Besides, the inhibition was over 90% in series [2] and “Dose-dependent effect” in series [3]. Further, the result in the series with Salmon testes DNA and in the series with U2OS [11] was inactive. Besides, the “growth inhibition (GI)” value in the series listed under Homo sapiens [4] is “inactive”. The figures for the fold change (FC) in [5] and in series [9] were 2 to 2.5 and 3.4, respectively. Also, the Activity in series [6] is 57.6%; in [7] it was “Non-Toxic”; in series [8] it was “Non-Toxic”; in the series with U2OS [10], “Non-Toxic”; in series [12], 6.54%; in [13] it was 4.94%. Besides, the Activity in series [14] amounted to 2.43%; in the series with U2OS [15], 6.98%; with U2OS [16], 6.68%; with U2OS [17], 5.7%.
